Experimental data published in BigSolDB 2.1.

Cl.O=C(O)c1cn(-c2ccc(F)cc2)c2cc(N3CCNCC3)c(F)cc2c1=O
solubility (mole fraction)
Settings | in DMF | in acetonitrile | in ethanol | in ethyl acetate | in isopropanol | in methanol | in n-butanol | in n-hexane
278.15 K | 0.00136 | 0.00011 | 0.00019 | 0.0038 | 0.00047 | 0.00181 | 0.00148 | 0.00029
283.15 K | 0.00148 | 0.00012 | 0.00022 | 0.00422 | 0.00059 | 0.00194 | 0.00162 | 0.00033
288.15 K | 0.00164 | 0.00014 | 0.00025 | 0.00476 | 0.00072 | 0.00211 | 0.00179 | 0.00038
293.15 K | 0.00183 | 0.00017 | 0.00029 | 0.00539 | 0.00083 | 0.00234 | 0.00202 | 0.00044
298.15 K | 0.00205 | 0.0002 | 0.00033 | 0.00627 | 0.00098 | 0.00262 | 0.00224 | 0.00053
303.15 K | 0.00232 | 0.00024 | 0.00037 | 0.00719 | 0.0011 | 0.00294 | 0.0025 | 0.00063
308.15 K | 0.00259 | 0.00028 | 0.00043 | 0.00831 | 0.00123 | 0.0033 | 0.00281 | 0.00075
313.15 K | 0.0029 | 0.00034 | 0.00049 | 0.00961 | 0.00134 | 0.00369 | 0.00312 | 0.00089
318.15 K | 0.00324 | 0.0004 | 0.00056 | 0.0109 | 0.00147 | 0.00411 | 0.00344 | 0.00105
323.15 K | 0.00359 | 0.00047 | 0.00064 | 0.0126 | 0.00161 | 0.00457 | 0.00379 | 0.0012
328.15 K | 0.00397 | 0.00054 | 0.00072 | 0.0144 | 0.00172 | 0.00502 | 0.00419 | 0.00137
333.15 K | 0.0044 | 0.00062 | 0.0008 | 0.0163 | 0.00185 | 0.00549 | 0.00463 | 0.00155
